Experimental data taken from publication PMC5458078, “Global mapping of CARM1 substrates defines enzyme specificity and substrate recognition” (Nature Communications, 2017).

Assays:
MCF7 cells = assay: Quantitative nanoLC-MS/MS (TMT) of ADMA-containing peptides, CARM1 KO vs parental; type: cell-based, human; parameters: Fold change KO/WT: scale not given here
MCF7 CARM1 KO cells = assay: Quantitative MS of ADMA-containing peptides in MCF7 CARM1 KO cells expressing CARM1 28-608 or CARM1 140-608, and in CARM1 KO; type: cell-based, human
[1] = CARM1 KO vs wild type MCF7 cells, 3 biological replicates each
[2] = CARM1 140-608 versus WT, difference of mean log2 values
[3] = CARM1 KO versus WT, difference of mean log2 values
[4] = MCF7, CARM1 knockout vs wild type, n = 3 each
[5] = ratio on log2 scale, mean of 3 replicates
[6] = MCF7, CARM1 KO vs WT, three biological replicates each
[7] = CARM1 140-608 vs WT, mean of 3 replicates, log2
[8] = KO vs WT, mean of 3 replicates, log2
[9] = MCF7 CARM1 knockout vs wild type, 3 biological replicates each, values are on log2 scale
[10] = difference of log2 means, CARM1 140-608 vs WT
[11] = difference of log2 means, KO vs WT
[12] = mean, CARM1 140-608 versus WT (log2 scale)
[13] = mean, CARM1 KO versus WT (log2 scale)
[14] = ADMA-containing peptide, MCF7, CARM1 knockout (KO1-3) vs wild type (WT1-3), TMT 6-plex experiment #1
[15] = log2 scale ratio, mean of n = 3
[16] = MCF7, CARM1 KO (KO1-KO3) vs wild type (WT1-WT3)
[17] = CARM1 140-608 vs WT, mean of 3 replicates (log2 scale)
[18] = KO vs WT, mean of 3 replicates (log2 scale)
[19] = ADMA-containing peptide, CARM1 knockout (KO) vs wild type (WT) MCF7 cells, 6-plex TMT experiment #1, three biological replicates each, sheet "MCF7"
[20] = CARM1 140-608 versus WT, mean of three replicates (log2)
[21] = KO versus WT, mean of three replicates (log2)

Substance: DVEAATGQDLGSSrYSGK
- Fold change KO/WT (MCF7 cells; [1]): 0.2995
- CARM1 140-608/WT (MCF7 CARM1 KO cells; [2]): -0.09015
- KO/WT (MCF7 CARM1 KO cells; [3]): -0.4514

Substance: DYFPPGDFPGPPPAPFAMrNVYPPrGFPPYLPPrPGFFPPPPHSEGR
- Fold change KO/WT (MCF7 cells; [4]): -2.577
- CARM1 140-608/WT (MCF7 CARM1 KO cells; [5]): -0.7489
- KO/WT (MCF7 CARM1 KO cells; [5]): -2.577

Substance: EELLrHQLLEK
- Fold change KO/WT (MCF7 cells; [6]): -4.489
- CARM1 140-608/WT (MCF7 CARM1 KO cells; [7]): -4.245
- KO/WT (MCF7 CARM1 KO cells; [8]): -5.464

Substance: EGAEGVNGGEESVNLNDADEGFSSGASLSSQPIGTKPSSSSQrGSLR
- Fold change KO/WT (MCF7 cells; [4]): -0.04765
- CARM1 140-608/WT (MCF7 CARM1 KO cells; [5]): -0.2709
- KO/WT (MCF7 CARM1 KO cells; [5]): -0.04765

Substance: EIrYSLLPFANESGTSAAAEVNR
- Fold change KO/WT (MCF7 cells; [9]): -3.011
- CARM1 140-608/WT (MCF7 CARM1 KO cells; [10]): -1.601
- KO/WT (MCF7 CARM1 KO cells; [11]): -3.011

Substance: ELAPrAHVLSK
- Fold change KO/WT (MCF7 cells; [4]): -2.404
- CARM1 140-608/WT (MCF7 CARM1 KO cells; [12]): -1.733
- KO/WT (MCF7 CARM1 KO cells; [13]): -2.404

Substance: ELSHPPLYrLPLLENAETPQ
- Fold change KO/WT (MCF7 cells; [14]): -3.498
- CARM1 140-608/WT (MCF7 CARM1 KO cells; [15]): -1.659
- KO/WT (MCF7 CARM1 KO cells; [15]): -3.498

Substance: EPFLSrDPFHSLK
- Fold change KO/WT (MCF7 cells; [16]): 2.308
- CARM1 140-608/WT (MCF7 CARM1 KO cells; [17]): 0.7405
- KO/WT (MCF7 CARM1 KO cells; [18]): 1.534

Substance: EPLVATNLPGrGQLQK
- Fold change KO/WT (MCF7 cells; [14]): -0.7768
- CARM1 140-608/WT (MCF7 CARM1 KO cells; [15]): -0.7114
- KO/WT (MCF7 CARM1 KO cells; [15]): -0.7768

Substance: EVVrYLGGSGGAGGR
- Fold change KO/WT (MCF7 cells; [16]): 0.2966
- CARM1 140-608/WT (MCF7 CARM1 KO cells; [17]): -0.0149
- KO/WT (MCF7 CARM1 KO cells; [18]): 0.2966

Substance: EVYQQQQYGSGGrGNR
- Fold change KO/WT (MCF7 cells; [9]): 0.5359
- CARM1 140-608/WT (MCF7 CARM1 KO cells; [12]): -0.0375
- KO/WT (MCF7 CARM1 KO cells; [13]): 0.5359

Substance: EYFIPGTrLPPPTHGPQEYPPPPAVR
- Fold change KO/WT (MCF7 cells; [19]): -1.126
- CARM1 140-608/WT (MCF7 CARM1 KO cells; [10]): 0.04953
- KO/WT (MCF7 CARM1 KO cells; [11]): -1.295

Substance: ErDMQYVQR
- Fold change KO/WT (MCF7 cells; [1]): 1.019
- CARM1 140-608/WT (MCF7 CARM1 KO cells; [2]): 0.06744
- KO/WT (MCF7 CARM1 KO cells; [3]): 1.019

Substance: ErDQLYYECYSDVSVHEEMIADR
- Fold change KO/WT (MCF7 cells; [16]): -0.1341
- CARM1 140-608/WT (MCF7 CARM1 KO cells; [20]): -0.3168
- KO/WT (MCF7 CARM1 KO cells; [21]): -0.6326

Substance: ErLALAAGPALrPDMSYAER
- Fold change KO/WT (MCF7 cells; [6]): -2.368
- CARM1 140-608/WT (MCF7 CARM1 KO cells; [7]): -1.6609
- KO/WT (MCF7 CARM1 KO cells; [8]): -2.368

Substance: ErLALAGPQLrPEMSYPDR
- Fold change KO/WT (MCF7 cells; [16]): -2.989
- CARM1 140-608/WT (MCF7 CARM1 KO cells; [17]): -2.2623
- KO/WT (MCF7 CARM1 KO cells; [18]): -2.989

Substance: ErYLGGIK
- Fold change KO/WT (MCF7 cells; [4]): 0.4212
- CARM1 140-608/WT (MCF7 CARM1 KO cells; [5]): 0.1385
- KO/WT (MCF7 CARM1 KO cells; [5]): 0.4212

Substance: FAPrGAPHFrFIIAGR
- Fold change KO/WT (MCF7 cells; [14]): -0.1223
- CARM1 140-608/WT (MCF7 CARM1 KO cells; [15]): -0.6829
- KO/WT (MCF7 CARM1 KO cells; [15]): -0.5952

Substance: FArVPLALHPVVGQPFLK
- Fold change KO/WT (MCF7 cells; [6]): -2.764
- CARM1 140-608/WT (MCF7 CARM1 KO cells; [5]): -2.105
- KO/WT (MCF7 CARM1 KO cells; [5]): -2.764

Substance: FCAFGGNPPVTGPrSALAPNLLTSGK
- Fold change KO/WT (MCF7 cells; [6]): -4.63
- CARM1 140-608/WT (MCF7 CARM1 KO cells; [7]): -3.4143
- KO/WT (MCF7 CARM1 KO cells; [8]): -5.047

Substance: FDGQPGQPSLLPrFDGLHGQPGPrFER
- Fold change KO/WT (MCF7 cells; [19]): -2.047
- CARM1 140-608/WT (MCF7 CARM1 KO cells; [20]): -1.6986
- KO/WT (MCF7 CARM1 KO cells; [21]): -2.399

Substance: FDGSPGQMGGGGPLrFEGPQGQLGGGCPLrFEGPPGPVGTPLrFEGPIGQAGGGGFR
- Fold change KO/WT (MCF7 cells; [19]): -4.068
- CARM1 140-608/WT (MCF7 CARM1 KO cells; [20]): 0.07812
- KO/WT (MCF7 CARM1 KO cells; [21]): -4.068

Substance: FEGGHGPSGAAIrFDGPHGQPGGGIrFEGPLLQQGVGMrFEGPHGQSVAGLR
- Fold change KO/WT (MCF7 cells; [19]): -1.343
- CARM1 140-608/WT (MCF7 CARM1 KO cells; [20]): -0.8121
- KO/WT (MCF7 CARM1 KO cells; [21]): -1.343

Substance: FEGPQGQLGGGCPLrFEGPPGPVGTPLrFEGPIGQAGGGGFR
- Fold change KO/WT (MCF7 cells; [19]): -2.35
- CARM1 140-608/WT (MCF7 CARM1 KO cells; [20]): 1.054
- KO/WT (MCF7 CARM1 KO cells; [21]): -2.35

Substance: FEGQHNQLGGNLrFEGPHGQPGVGIrFEGPLVQQGGGMrFEGPSVPGGGLR
- Fold change KO/WT (MCF7 cells; [19]): -1.477
- CARM1 140-608/WT (MCF7 CARM1 KO cells; [20]): 0.6048
- KO/WT (MCF7 CARM1 KO cells; [21]): -1.668

Substance: FFEAAAGSGSSAGAGDGAGPQrLPEPGGRPR
- Fold change KO/WT (MCF7 cells; [19]): -1.059
- CARM1 140-608/WT (MCF7 CARM1 KO cells; [10]): -1.027
- KO/WT (MCF7 CARM1 KO cells; [11]): -1.059
